{
  "source": "patent US20230192787A1",
  "about": "“DIAGNOSIS METHODS, DIAGNOSTIC AGENTS, AND THERAPEUTIC AGENTS AGAINST ALZHEIMER'S DISEASE AND FRONTOTEMPORAL LOBAR DEGENERATION, AND SCREENING METHODS FOR THESE AGENTS” (National University Corporation Tokyo Medical and Dental …, priority 2013, published 2023)",
  "key": {"5×FAD mice": {"test_system": "5×FAD mice", "assay": "In vivo two-photon imaging of dendritic spines after administering kinase inhibitors/activator", "design": "species or system mouse", "details": "5×FAD mice (12 weeks old); for spine densities by morphological type (thin, mushroom, stubby) / spine dynamics: spine formation and stability: 36 hours and 60 hours after administration; for dendritic spine density (total spine density): layer 1 of retrosplenial cortex, 36 hours and 60 hours after administration by osmotic pump", "experimental": "(§1) Two-photon imaging of dendritic spine was performed using a laser-scanning microscope system FV1000MPE2 (manufactured by Olympus Corporation) equipped with an upright microscope (BX61WI, manufactured by Olympus Corporation, a water-immersion objective lens (XLPlanN25xW; numerical aperture, 1.05), and a pulsed laser (MaiTai HP DeepSee, manufactured by Spectra Physics). In the imaging, EGFP was excited by light at a wavelength of 890 nm, and scanned in a range of 500 to 550 nm. Moreover, the scanned region for three-dimensional imaging was 100×100 μm (1 μm Z-axis steps, 1024×1024 pixels).\n(§2) Additionally, two weeks before the imaging, adeno-associated virus 1 (AAV1)-EGFP with the synapsin 1 promoter (titer: 1×10^10 vector genomes/mL, 1 μL) was injected into the retrosplenial cortex (−2.0 mm anteroposterior and 0.6 mm mediolateral from the bregma, depth 1 mm) of mice under anesthesia with 2.5% isoflurane. Then, two weeks thereafter, the dendritic spines of the first layer (layer 1) of the cerebral cortex were observed through a thinned skull window according to the method described in “Yang, G. et al., Nat. Protoc., 2010, Vol. 5, pp. 201 to 208.”\nMoreover, when the influence of kinase inhibition on dendritic spines was imaged, Alzet micro-osmotic pumps (model: 1003D, manufactured by Durect Corporation) filled with PBS/1% DMSO containing 1 μM Go6976 (manufactured by Calbiochem), 0.4 mM KN-93 (manufactured by Cayman Chemical), or 1 μM MLR1023 (manufactured by Glixx Laboratories) were implanted into mice under anesthesia with O2/isoflurane. […] Note that, regarding the PKC inhibitor Go6976, see Yan, Z. et al., Proc. Natl. Acad. Sci. U.S.A., 1999, Vol. 96, pp. 11607 to 11612. Regarding the CaMK inhibitor KN-93, see Galan, A. et al., Pain, 2004, Vol. 112, pp. 315 to 323. Regarding the Lyn activator MLR1023, see Saporito, M. S. et al., J. Pharmacol. Exp. Ther., 2012, Vol. 342, pp. 15 to 22.\nIn addition, the spine density, spine length, spine maximum diameter, and spine neck minimum diameter were measured from the obtained images using image analysis software IMARIS 7.2.2 (manufactured by Bitplane).\nMore concretely, the effect of the kinases on the synaptic pathology in the 5×FAD mice was analyzed by administering inhibitors and so forth against these kinases into the subarachnoid spaces of the mice. FIGS. 4 to 9 show the obtained result."}, "PGRN-KI mice [1]": {"test_system": "PGRN-KI mice", "assay": "Immunohistological analysis of protein aggregation in brains of PGRN-KI mice", "format": "in vivo, mouse", "from_the_text": "To be more specific, as the first hypothesis, the aforementioned therapeutic effect by suppressing b-raf phosphorylation was presumably based on the elimination of protein aggregation in the nerve by vemurafenib or thalidomide. Accordingly, analyzed was the recovery effect of vemurafenib or thalidomide on the protein aggregation in the cerebral cortexes of the PGRN-KI mice."}, "PGRN-KI mice [2]": {"test_system": "PGRN-KI mice", "assay": "Morris water maze test in FTLD model mice", "format": "in vivo, mouse", "details": "provided every day over 6 weeks from 6 weeks old", "experimental": "In this test, the mice received a 60-second trial four times a day for 5 days. The time until each mouse reached the platform was measured.\nFurthermore, the PGRN-KI mice were also subjected to six behavioral tests as in the case of Alzheimer's disease model mice described above. As a result, abnormalities regarding anxiety memory and anxiety-related memory were not observed in the open-field test, the light-dark box test, and the elevated plus maze test. […] Moreover, in the Morris water maze test, a statistically significant decrease was observed from the age of 3 months in the time during which the mice stayed in the target region or the number of times the mice passed through the target. […] Note that, in the Morris water maze test using the PGRN-KI mice, the mice received the 60-second trial four times a day for 5 days to learn the position of the platform (target region). […]\nTo be more specific, in accordance with the protocol shown in FIG. 21, a b-raf specific inhibitor vemurafenib or PBS was provided to the 6-week-old PGRN-KI mice every day over 6 weeks. Then, the behaviors of these mice were evaluated in the Morris water maze test and the fear-conditioning test. […]\nMeanwhile, the therapeutic effect of thalidomide was also tested. […] The behaviors of these mice were evaluated by the above two tests. […]"}, "PGRN-KI mice [3]": {"test_system": "PGRN-KI mice", "assay": "Fear-conditioning test in FTLD model mice", "format": "in vivo, mouse", "details": "provided every day over 6 weeks from 6 weeks old", "experimental": "In this test, first, a mouse received a sound stimulus (65-dB white noise, 30 seconds) together with an electrical stimulus (0.4 mA, 2 seconds) on the foot. Then, after 24 hours, the mouse was measured for the frequency of the freezing reaction when the mouse received a sound stimulus but no electrical stimulus in the same chamber.\nTo be more specific, in accordance with the protocol shown in FIG. 21, a b-raf specific inhibitor vemurafenib or PBS was provided to the 6-week-old PGRN-KI mice every day over 6 weeks. Then, the behaviors of these mice were evaluated in the Morris water maze test and the fear-conditioning test. FIGS. 22 and 23 show the obtained result.\nMeanwhile, the therapeutic effect of thalidomide was also tested. Note that thalidomide is known to suppress the TNF signal transduction pathway. Concretely, in accordance with the protocol shown in FIG. 24, thalidomide was administered to the PGRN-KI mice by peritoneal cavity injection every day for the same period as that in the protocol using the b-raf inhibitor. The behaviors of these mice were evaluated by the above two tests. FIGS. 25 and 26 show the obtained result."}, "[4]": {"test_system": "phosphorylated PKC protein", "assay": "Western blot of cerebral cortexes of treated PGRN-KI mice, phosphorylated PKC", "format": "in vivo, mouse", "experimental": "(§3) FIG. 27 is a figure for illustrating the result of western blot analysis on the cerebral cortexes of wild-type mice (WT) and the PGRN-KI mice to which vemurafenib was administered. […] “Anti-p-Braf” and “Anti-p-PKC” respectively show the analysis result of phosphorylated b-RAF protein and the analysis result of phosphorylated PKC protein. […] The significant differences were evaluated based on the P-value calculated by Student's independent t-test.\n(§4) FIG. 28 is a figure for illustrating the result of western blot analysis on the cerebral cortexes of the PGRN-KI mice to which thalidomide was administered. […] “Anti-p-Braf”, “Anti-Braf”, and “Anti-p-PKC” respectively show the analysis result of phosphorylated b-raf protein, the analysis result of b-raf protein, and the analysis result of phosphorylated PKC protein. […] Further, in the figure, one asterisk indicates p<0.05 in Student's independent t-test, and two asterisks indicate p<0.01 in Student's independent t-test.\n(§5) Moreover, the cerebral cortexes of the PGRN-KI mice treated with the agent were analyzed by western blot."}, "[5]": {"test_system": "phosphorylated b-RAF protein", "assay": "Western blot of cerebral cortexes of treated PGRN-KI mice, phosphorylated b-RAF", "format": "in vivo, mouse", "experimental": "as §3, §4, §5"}, "PGRN-KI mice [6]": {"test_system": "PGRN-KI mice", "assay": "In vivo two-photon imaging of synaptic spines in retrosplenial cortex of PGRN-KI mice (recovery experiment)", "design": "species or system mouse", "experimental": "as §1, §2\nA pharmacological recovery experiment was conducted on the PGRN-KI mice as follows. […]\nIn addition, analyzed was whether or not vemurafenib and/or tau knockdown enabled recovery of spine related phenotype. […]"}},
  "note": "“Also recorded” adds a separate entry of the source.",
  "data": [
    {"smiles": "Cn1c2ccccc2c2c3c(c4c5ccccc5n(CCC#N)c4c21)CNC3=O", "note": "[Go6976]", "values": [
      {"measurement": "spine densities by morphological type (thin, mushroom, stubby)", "setting": "5×FAD mice", "result": "the decreases were recovered; also recorded: increased"},
      {"measurement": "spine dynamics: spine formation and stability", "setting": "5×FAD mice", "result": "enhanced the spine formation and stability"},
      {"measurement": "dendritic spine density (total spine density)", "setting": "5×FAD mice", "result": "recovered the decrease of spines; also recorded: increased the total spine density"}
    ]},
    {"smiles": "COc1ccc(S(=O)(=O)N(CCO)c2ccccc2CN(C)C/C=C/c2ccc(Cl)cc2)cc1", "note": "[KN-93]", "values": [
      {"measurement": "spine densities by morphological type (thin, mushroom, stubby)", "setting": "5×FAD mice", "result": "the decreases were recovered"},
      {"measurement": "spine dynamics: spine formation and stability", "setting": "5×FAD mice", "result": "had a therapeutic effect on the spine formation and stability"},
      {"measurement": "dendritic spine density (total spine density)", "setting": "5×FAD mice", "result": "recovered the decrease of spines"}
    ]},
    {"smiles": "Cc1cccc(Oc2cnc(O)nc2)c1", "note": "[MLR1023]", "values": [
      {"measurement": "spine densities by morphological type (thin, mushroom, stubby)", "setting": "5×FAD mice", "result": "the decreases were recovered"},
      {"measurement": "spine dynamics: spine formation and stability", "setting": "5×FAD mice", "result": "had a therapeutic effect on the spine formation and stability"},
      {"measurement": "dendritic spine density (total spine density)", "setting": "5×FAD mice", "result": "recovered the decrease of spines"}
    ]},
    {"smiles": "O=C1CCC(N2C(=O)c3ccccc3C2=O)C(=O)N1", "note": "(centres unmarked) [thalidomide]", "values": [
      {"measurement": "FUS and p62 inclusion (IB)", "setting": "PGRN-KI mice [1]", "result": "no significant effect"},
      {"measurement": "transition of TDP43 into the cytoplasm", "setting": "PGRN-KI mice [1]", "result": "no large change was observed"},
      {"measurement": "scores in the Morris water maze test", "setting": "PGRN-KI mice [2]", "result": "beneficial effects were finally verified"},
      {"measurement": "scores in the fear-conditioning test", "setting": "PGRN-KI mice [3]", "result": "beneficial effects were finally verified"},
      {"measurement": "PKC phosphorylation", "setting": "[4]", "result": "the PKC phosphorylation was not suppressed"},
      {"measurement": "b-raf phosphorylation", "setting": "[5]", "result": "the b-raf phosphorylation was suppressing"}
    ]},
    {"smiles": "CCCS(=O)(=O)Nc1ccc(F)c(C(=O)c2c[nH]c3ncc(-c4ccc(Cl)cc4)cc23)c1F", "note": "[vemurafenib, N-{3-[5-(4-chlorophenyl)-1H-pyrrolo[2,3-b]pyridine-3-carbonyl]-2,4-difluorophenyl}propane-1-sulfonamide]", "values": [
      {"measurement": "FUS and p62 inclusion (IB)", "setting": "PGRN-KI mice [1]", "result": "no significant effect"},
      {"measurement": "transition of TDP43 into the cytoplasm", "setting": "PGRN-KI mice [1]", "result": "no large change was observed"},
      {"measurement": "number of spines", "setting": "PGRN-KI mice [6]; PGRN-KI mice (12 weeks old), vemurafenib 1.7 μM by osmotic pump for 3 days, shRNA imaged on Day 5", "result": "recovered the number of spines; also recorded: had a recovery effect on the number of spines"},
      {"measurement": "spine volume", "setting": "PGRN-KI mice [6]; PGRN-KI mice, trend, not a statistically significant difference", "result": "decreased the spine volume"},
      {"measurement": "scores in the Morris water maze test", "setting": "PGRN-KI mice [2]", "result": "remarkably recovered the scores in the two tests"},
      {"measurement": "scores in the fear-conditioning test", "setting": "PGRN-KI mice [3]", "result": "remarkably recovered the scores in the two tests"},
      {"measurement": "PKC phosphorylation", "setting": "[4]", "result": "also suppressed the PKC phosphorylation"},
      {"measurement": "b-raf phosphorylation", "setting": "[5]", "result": "suppressed the b-raf phosphorylation"}
    ]}
  ]
}
